Drawing on ChEMBL document CHEMBL5370572, “Coscinoderines A-J: Trisubstituted Pyridinium-Containing Norterpenoids Isolated from Coscinoderma bakusi, a Tropical Marine Sponge” (J Nat Prod, 2023), this text covers Activity and inhibition for 4 molecules.

SMILES strings stand for the structures. The source made the active and inactive calls. The rule behind the calls is not given here.

For data set [1], the system named is HEK293. Kind of data set: Cytotoxicity against HEK293 cells assessed as reduction in cell proliferation at 1.25 to 80 uM measured after 48 hrs by MTS assay. It is filed as toxicity, cell-based. The settings on record: human, hek293, 48 h, dose 1.25-80 µM. A general note: Formazan colour is commonly taken as a measure of viable cells.
In data set [2] the test system is Micrococcus luteus. The data set is described as follows: Antibacterial activity against Micrococcus luteus KCTC 1915 assessed as inhibition of bacterial growth at 75 uM. The format is functional, organism-based.
Data set [3] deals with Micrococcus luteus. Kind of data set: Antibacterial activity against Micrococcus luteus KCTC 1915 assessed as inhibition of bacterial growth at 72.6 uM. It is filed as functional, organism-based.
Data set [4] relates to Staphylococcus aureus. Kind of data set: Antibacterial activity against Staphylococcus aureus ATCC 25923 assessed as inhibition of bacterial growth at 45.4 uM. It is filed as functional, organism-based.

In the case of `C=C(C)[C@@]1(CC/C(C)=C/CCCc2ccc(CC(=O)O)c[n+]2CC(C)C)CCC[C@H]1C`, in data set [1], the Activity result is recorded as “Non-Toxic”. In addition, in data set [2], the inhibition entry was “Active”.
Consider `CC(C)=CCC/C(C)=C/CC/C(C)=C/CCCc1ccc(CC(=O)O)c[n+]1CC(=O)O`, for which, in data set [1], the Activity result is listed as “Non-Toxic”.
Regarding `C=C(C)[C@@]1(CC/C(C)=C/CCCc2ccc(CC(=O)O)c[n+]2C[C@@H](C)CC)CCC[C@H]1C`, in data set [1], the Activity entry is reported as “Non-Toxic”. Moreover, the inhibition entry in data set [3] and in data set [4] was “Active” in each case.
Take `CC1=C(CC/C(C)=C/CCCc2ccc(CC(=O)O)c[n+]2CCS(=O)(=O)O)C(C)(C)CCC1`: in data set [1], the Activity result is listed as “Non-Toxic”.
